The values below come from patent US8822229B2, “Method for assaying keratan sulfate, assay kit therefor and method for detecting joint disease by using the same” (Seikagaku Corporation, priority 2008, dated 2014).

A short description of experiment [1]: adjuvant-induced arthritis (AIA) model in rats, plasma KS level. Conditions: incadronate 1 mg/kg s.c. once a day from day 14; day 35 after adjuvant; BCD-4/MK-172 assay; vs AIA control group. It is filed as in vivo, rat. How it is done: (§1) In Example 5, 6-week-old male Lewis rats (SPF, Charles River Laboratories Japan, Inc.) were employed. The adjuvant was prepared by suspending heat-killed Mycobacterium butyricum (product of DIFCO) in liquid paraffin (product of Wako Pure Chemical Industries, Ltd.) at a concentration of 6 mg/mL. The adjuvant was subcutaneously administered to each of the rats in the right hind paw (0.3 mg/paw) without anesthesia. Fourteen days after administration, the rats were divided into 4 groups. To a non-treated normal control group, only liquid paraffin was administered to the rats in a similar manner. From the timing of the grouping, incadronate (Bisphonal (registered trademark) injection (10 mg), product of Astellas Pharma Inc.) was subcutaneously administered to the rats every day (once a day) at a dose of 1 mg/kg to the day before the day of sacrifice. […] The edema volume of the left hind paw was measured by means of a volumetric apparatus (TK-101CMP, product of UNICOM). […] The plasma KS level (non-treated control group, AIA control group, and incadronate-administered group) was determined on day 35 after administration of the adjuvant, by means of a conventional KS assay kit (5D4 assay system) and through the KS assay system of the present invention. […]

The test system of experiment [2] is adjuvant-induced arthritis (AIA) model in rats. Nature of the experiment: adjuvant-induced arthritis (AIA) model in rats, left hind paw edema volume. It is filed as in vivo, rat. Conditions: incadronate 1 mg/kg s.c. once a day from day 14; day 35 after adjuvant; vs AIA control group. How it is done:
as §1

For the compound `O=P(O)(O)C(NC1CCCCCC1)P(=O)(O)O` [incadronate], the “plasma KS level” value in experiment [1] is recorded as “reduced as compared with the AIA control group”. Further, in experiment [2], the left paw volume result is “reduced as compared with the AIA control group”.
